In patent US10703764B2, “Benzopiperazine compositions as BET bromodomain inhibitors” (FORMA Therapeutics, Inc., priority 2013, dated 2020):
Where two headings read alike, the source gives them in different places.

Key:
[1] = target: T1, BRD4 BD2 (Homo sapiens, UniProt O60885); test: AlphaScreen binding assay, BRD4 Bromodomain 2
T1 construct: made in house
How it was run: (§1)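 Compound dilution series were mixed with His-tagged BRD4 bromodomain and biotinylated tetra-acetylated H4 (1-21) peptide at pH 7.3 (BD1 and peptide at 50 nM, BD2 and peptide at 100 nM). Donor and acceptor beads were then added, and plates were equilibrated at least 1 h before reading. IC50 values were fitted with a four-parameter logistic model.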

[2] = target: T2, BRD4 BD1 (Homo sapiens, UniProt O60885); test: AlphaScreen binding assay, BRD4 Bromodomain 1
T2 construct: made in house
How it was run: as §1

[3] = system: MV4-11 cells; test: Oncology cell growth assay (3-day proliferation, CellTiter-Glo); format: cell-based; details: Homo sapiens, AML cell line MV4-11, 72 hours, compounds grouped by IC50 range, read-out: MV4-11 IC50 (inhibition of proliferation, gIC50)
How it was run: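 Luminescence from CellTiter-Glo served as the growth read-out after MV4-11 cells (3000/well) were cultured with compound for 72 hours. Final concentrations spanned 10 to 0.0045 μM in 3-fold steps. gIC50 values were derived by four-parameter logistic fitting relative to DMSO and cell-free controls.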

| Compound | IC50 [1] | IC50 [2] | IC50 ([3]; MV4-11, 72 h) | IC50 [3] |
| --- | --- | --- | --- | --- |
| CC(=O)N1c2ccc(-c3cnn(C4CC4)c3)cc2N(c2nn(C)c3c(F)cccc23)C[C@@H]1C [Example I-179, 1-[(2S)-6-(1-cyclopropyl-1H-pyrazol-4-yl)-4-(7-fluoro-1-methyl-1H-indazol-3-yl)-2-methyl-1,2,3,4-tetrahydroquinoxalin-1-yl]ethan-1-one] | < 50 nM | 100 to 1000 nM | 100 to 500 nM |  |
| CC(=O)N1c2ccc(-c3ccc(C(=O)NC4CC4)cc3)cc2N(C(=O)c2ccco2)C[C@@H]1C [Example I-292] | > 500 nM | 1000 to 10000 nM | 100 to 500 nM |  |
| CC(=O)N1c2ccc(-c3ccc(C(=O)N4CC[C@H](O)C4)cc3)cc2N(C(=O)OC(C)C)C[C@@H]1C [Example I-580] | 50 to 500 nM | 100 to 1000 nM | 100 to 500 nM |  |
| CC(=O)N1c2ccc(-c3cnn(C4CC4)c3)cc2N(c2noc3ccccc23)C[C@@H]1C [Example I-95, (S)-1-(4-(benzo[d]isoxazol-3-yl)-6-(1-cyclopropyl-1H-pyrazol-4-yl)-2-methyl-3,4-dihydroquinoxalin-1(2H)-yl)ethanone] | < 50 nM | < 100 nM |  | 100 to 500 nM |
| CC(=O)N1c2ccc(-c3ccc(C(=O)N4CCNCC4)cc3)cc2N(C(=O)Oc2ccccc2)C[C@@H]1C [Example I-99, phenyl (S)-4-acetyl-3-methyl-7-(4-(piperazine-1-carbonyl)phenyl)-3,4-dihydroquinoxaline-1(2H)-carboxylate] | < 50 nM | < 100 nM |  | < 100 nM |
| C[C@H]1CN(C(=O)c2ccco2)c2cc(-c3ccc(S(C)(=O)=O)cc3)ccc2N1C(=O)C1CC1 [Example I-364] | < 50 nM | 100 to 1000 nM | 100 to 500 nM |  |
| CC(=O)N1c2ccc(-c3cnn(CC(=O)N(C)C4CC4)c3)cc2N(C(=O)OC(C)C)C[C@@H]1C [Example I-596] | < 50 nM | 100 to 1000 nM | 100 to 500 nM |  |
| CC(=O)N1c2ccc(-c3cnn(CCS(C)(=O)=O)c3)cc2N(C(=O)Oc2cccnc2)C[C@@H]1C [Example I-1279] | 50 to 500 nM | 100 to 1000 nM | 100 to 500 nM |  |
| CC(=O)N1c2cc(C#N)c(-c3cnn(C4CC4)c3)cc2N(C(=O)OC(C)C)C[C@@H]1C [Example I-211, Isopropyl (S)-4-acetyl-6-cyano-7-(1-cyclopropyl-1H-pyrazol-4-yl)-3-methyl-3,4-dihydroquinoxaline-1(2H)-carboxylate] | > 500 nM | 100 to 1000 nM | > 500 nM |  |
| CC(=O)N1c2ccc(-c3cccc4c3OCO4)cc2N(C(=O)c2ccco2)C[C@@H]1C [Example I-849] | 50 to 500 nM | 100 to 1000 nM | > 500 nM |  |
| CC(=O)Nc1cc2c(cc1-c1cnn(CC(C)(C)O)c1)N(C(=O)OC(C)C)C[C@H](C)N2C(C)=O [Example I-205, Isopropyl (S)-6-acetamido-4-acetyl-7-(1-(2-hydroxy-2-methylpropyl)-1H-pyrazol-4-yl)-3-methyl-3,4-dihydroquinoxaline-1(2H)-carboxylate] | 50 to 500 nM | 100 to 1000 nM | > 500 nM |  |
| CC(=O)N1c2ccc(-c3ccc(C(=O)N[C@H]4C[C@H]5CC[C@@H](C4)N5)cc3)cc2N(C(=O)OC(C)C)C[C@@H]1C [Example I-594] | 50 to 500 nM | 100 to 1000 nM | 100 to 500 nM |  |
| CC(=O)N1c2ccc(-c3cnn(CCO)c3)cc2N(C(=O)OCC(F)(F)F)C[C@@H]1C [Example I-82, (S)-2,2,2-trifluoroethyl 4-acetyl-7-(1-(2-hydroxyethyl)-1H-pyrazol-4-yl)-3-methyl-3,4-dihydroquinoxaline-1(2H)-carboxylate] | > 500 nM | > 10000 nM | > 500 nM |  |
| CNC(=O)c1ccc(-c2ccc3c(c2)N(C(=O)c2ccco2)C[C@H](C)N3C(C)=O)cc1 [Example I-824] | < 50 nM | 1000 to 10000 nM | 100 to 500 nM |  |
| CC(=O)N1c2ccc(-c3cnn(CCn4ccnc4)c3)cc2N(C(=O)OC(C)C)C[C@@H]1C [Example I-598] | 50 to 500 nM | 100 to 1000 nM | 100 to 500 nM |  |
| CC(=O)N1c2ccc(-c3ccc(N4CCCS4(=O)=O)cc3)cc2N(C(=O)OC2CCC(F)(F)CC2)C[C@@H]1C [Example I-36, 4,4-difluorocyclohexyl (3S)-4-acetyl-7-[4-(1,1-dioxo-1λ^6,2-thiazolidin-2-yl)phenyl]-3-methyl-1,2,3,4-tetrahydroquinoxaline-1-carboxylate] | 50 to 500 nM | 1000 to 10000 nM | 100 to 500 nM |  |
| CC(=O)N[C@H]1CCN(C(=O)c2ccc(-c3ccc4c(c3)N(C(=O)OC(C)C)C[C@H](C)N4C(C)=O)cc2)C1 [Example I-541] | 50 to 500 nM | 100 to 1000 nM | 100 to 500 nM |  |
| CC(=O)N1c2ccc(-c3ccc(N4CCCS4(=O)=O)cc3)cc2N(C(=O)OC(C)C)C[C@@H]1C [Example I-469] | 50 to 500 nM | 100 to 1000 nM | 100 to 500 nM |  |
| CC(=O)N1c2ccc(-c3ccc4nccn4n3)cc2N(C(=O)c2ccco2)C[C@@H]1C [Example I-398] | 50 to 500 nM | 100 to 1000 nM | 100 to 500 nM |  |

| Compound | IC50 [1] | IC50 [2] | IC50 ([3]; MV4-11, 72 h) | IC50 [3] |
| --- | --- | --- | --- | --- |
| CC(=O)N1c2ccc(-c3cnn(C4CC4)c3)cc2N(C(=O)Oc2cccc3ncccc23)C[C@@H]1C [Example I-1191] | < 50 nM | 100 to 1000 nM | 100 to 500 nM |  |
| CC(=O)N1c2ccc(-c3cccc(S(N)(=O)=O)c3)cc2N(C(=O)C2CC2)C[C@@H]1C [Example I-1039] | < 50 nM | 1000 to 10000 nM | 100 to 500 nM |  |
| CC(=O)N1c2ccc(-c3ccc(S(=O)(=O)C(C)C)cc3)cc2N(C(=O)C2CCC2)C[C@@H]1C [Example I-1063] | 50 to 500 nM | 1000 to 10000 nM | > 500 nM |  |
| CC(=O)N1c2ccc(-c3ccc(N(C)S(C)(=O)=O)cc3)cc2N(C(=O)Oc2ccccn2)C[C@@H]1C [Example I-1330] | 50 to 500 nM | 100 to 1000 nM | 100 to 500 nM |  |
| CC(=O)N1c2ccc(-c3cnn(C4CCNCC4)c3)cc2N(C(=O)OC2CCC(F)(F)CC2)C[C@@H]1C [Example I-153, (S)-4,4-difluorocyclohexyl 4-acetyl-3-methyl-7-(1-(piperidin-4-yl)-1H-pyrazol-4-yl)-3,4-dihydroquinoxaline-1(2H)-carboxylate] | 50 to 500 nM | 100 to 1000 nM | 100 to 500 nM |  |
| CC(=O)N1c2ccc(-c3cnn(C4CC4)c3)cc2N(C(=O)Oc2ccc3cnccc3c2)C[C@@H]1C [Example I-1192] | < 50 nM | 100 to 1000 nM | < 100 nM |  |
| CC(=O)N1c2ccc(-c3ccc(N4CCCS4(=O)=O)c(F)c3)cc2N(C(=O)OC(C)C)C[C@@H]1C [Example I-1156] | 50 to 500 nM | 100 to 1000 nM | 100 to 500 nM |  |
| COc1ccc(-c2ccc3c(c2)N(C(=O)OC2CCCCC2)C[C@H](C)N3C(C)=O)cc1NS(C)(=O)=O [Example I-1271] | 50 to 500 nM | 100 to 1000 nM | < 100 nM |  |
| CC(=O)N1c2ccc(-c3ccc(S(=O)(=O)CCO)cc3)cc2N(C(=O)OC(C)C)C[C@@H]1C [Example I-478] | 50 to 500 nM | 100 to 1000 nM | 100 to 500 nM |  |
| CC(=O)N1c2ccc(-c3ccc(C(=O)N4CCCCC4)cc3)cc2N(C(=O)OC(C)C)C[C@@H]1C [Example I-537] | 50 to 500 nM | 100 to 1000 nM | 100 to 500 nM |  |
| CCOC(=O)N1C[C@H](C)N(C(C)=O)c2ccc(-c3ccc(N4CCCS4(=O)=O)c(F)c3)cc21 [Example I-1155] | 50 to 500 nM | 100 to 1000 nM | > 500 nM |  |
| CCOC(=O)N1C[C@H](C)N(C(C)=O)c2ccc(-c3ccc(OCCS(C)(=O)=O)cc3)cc21 [Example I-1102] | 50 to 500 nM | 100 to 1000 nM | > 500 nM |  |
| CC(=O)N1c2cc(N)c(-c3cnn(C4CC4)c3)cc2N(C(=O)OC(C)C)C[C@@H]1C [Example I-206, Isopropyl (S)-4-acetyl-6-amino-7-(1-cyclopropyl-1H-pyrazol-4-yl)-3-methyl-3,4-dihydroquinoxaline-1(2H)-carboxylate] | < 50 nM | 100 to 1000 nM | 100 to 500 nM |  |
| CC(=O)N1c2ccc(-c3ccc(NS(C)(=O)=O)cc3)cc2N(C(=O)OC(C)C)C[C@@H]1C [Example I-345] | 50 to 500 nM | 100 to 1000 nM | 100 to 500 nM |  |
| CCS(=O)(=O)c1ccc(-c2ccc3c(c2)N(C(=O)OC(C)C)C[C@H](C)N3C(C)=O)cc1 [Example I-1030] | 50 to 500 nM | 100 to 1000 nM | 100 to 500 nM |  |
| CC(=O)N1c2ccc(-c3cnn(C4CC4)c3)cc2N(C(=O)Oc2ccc3c(c2)ncn3C)C[C@@H]1C [Example I-1205] | < 50 nM | 100 to 1000 nM | 100 to 500 nM |  |
| CC(=O)N1c2ccc(-c3cnn(CCS(C)(=O)=O)c3)cc2N(C(=O)OC(C)C)C[C@@H]1C [Example I-303] | 50 to 500 nM | < 100 nM | 100 to 500 nM |  |
| CC(=O)N1c2ccc(-c3cnn(C4COC4)c3)cc2N(C(=O)OC(C)C)C[C@@H]1C [Example I-144, (S)-isopropyl 4-acetyl-3-methyl-7-(1-(oxetan-3-yl)-1H-pyrazol-4-yl)-3,4-dihydroquinoxaline-1(2H)-carboxylate] | < 50 nM | < 100 nM | 100 to 500 nM |  |
